Measured values from BindingDB's records for doi:10.1016/s0960-894x(00)00462-5 (Smithkline Beecham Pharmaceuticals, 2001).

Experiments:
[1] = target: Capsid scaffolding protein / assemblin protease (Human cytomegalovirus) (UniProt P16753); assay: In vitro inhibitory activity against human cytomegalovirus (hCMV) protease in the presence of zinc
[2] = target: Capsid scaffolding protein / assemblin protease (Human cytomegalovirus) (UniProt P16753); assay: In vitro inhibitory activity against human cytomegalovirus (hCMV) protease in the absence of zinc
[3] = target: Capsid scaffolding protein / assemblin protease (Human cytomegalovirus) (UniProt P16753); assay: In vitro inhibitory activity against human cytomegalovirus (hCMV) protease in the presence of zinc; remark: listed apart in the source

Sequence of Capsid scaffolding protein / assemblin protease (Human cytomegalovirus) (P16753 whole entry, looked up): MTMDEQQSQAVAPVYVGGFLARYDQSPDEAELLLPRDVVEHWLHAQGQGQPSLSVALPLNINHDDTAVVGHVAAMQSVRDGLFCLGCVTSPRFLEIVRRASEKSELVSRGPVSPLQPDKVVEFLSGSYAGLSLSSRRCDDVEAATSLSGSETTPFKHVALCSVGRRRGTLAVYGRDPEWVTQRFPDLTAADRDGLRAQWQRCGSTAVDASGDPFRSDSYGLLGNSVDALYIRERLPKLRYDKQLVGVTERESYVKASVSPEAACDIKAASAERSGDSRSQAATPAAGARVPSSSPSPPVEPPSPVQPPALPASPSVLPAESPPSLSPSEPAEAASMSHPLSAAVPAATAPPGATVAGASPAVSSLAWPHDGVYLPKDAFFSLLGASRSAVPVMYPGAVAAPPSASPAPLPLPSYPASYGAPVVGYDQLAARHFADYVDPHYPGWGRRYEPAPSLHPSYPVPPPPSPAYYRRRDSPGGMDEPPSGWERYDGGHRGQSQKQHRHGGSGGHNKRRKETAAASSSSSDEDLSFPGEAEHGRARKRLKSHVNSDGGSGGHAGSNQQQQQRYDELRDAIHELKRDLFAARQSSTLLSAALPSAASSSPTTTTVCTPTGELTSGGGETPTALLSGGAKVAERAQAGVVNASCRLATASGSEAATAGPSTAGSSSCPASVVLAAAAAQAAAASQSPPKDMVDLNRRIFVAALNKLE

IC50 [1] | IC50 [2] | IC50 [3] | SMILES
41 µM | 125 µM |  | CCCCCCCCSc1ncc(Cc2cn(CC(=O)NC(Cc3ccccc3)C(=O)OCc3ccccc3)cn2)[nH]1 (stereo not drawn) [2-{2-[4-(2-Octylsulfanyl-1H-imidazol-4-ylmethyl)-imidazol-1-yl]-acetylamino}-3-phenyl-propionic acid benzyl ester]
 | 15 µM | 5 µM | CCCCCCCCSc1ncc(Cc2cn(CC(=O)NC(CC(=O)OCc3ccccc3)C(=O)OCc3ccccc3)cn2)[nH]1 (stereo not drawn) [2-{2-[4-(2-Octylsulfanyl-1H-imidazol-4-ylmethyl)-imidazol-1-yl]-acetylamino}-succinic acid dibenzyl ester]
 | > 150 µM | 7 µM | CCCCCCCCSc1ncc(Cc2cn(Cc3ccc(C(=O)OC)cc3)cn2)[nH]1 [4-[4-(2-Octylsulfanyl-1H-imidazol-4-ylmethyl)-imidazol-1-ylmethyl]-benzoic acid methyl ester]
 | > 150 µM | 15 µM | CCCCCCCCSc1ncc(Cc2cn(Cc3ccc(C(=O)NCC4CC4)cc3)cn2)[nH]1 [N-Cyclopropylmethyl-4-[4-(2-octylsulfanyl-1H-imidazol-4-ylmethyl)-imidazol-1-ylmethyl]-benzamide]
